Data on six compounds can be found in US10807960B2, “Compounds, compositions, and methods for controlling biofilms” (KATHOLIEKE UNIVERSITEIT LEUVEN, priority 2015, dated 2020).

Data set [1] concerns P. aeruginosa PA14. Briefly: static peg (Calgary Biofilm Device) anti-biofilm assay, crystal violet and OD600.
Data set [2] concerns E. coli TG1. The description is as above. The following applies: for IC50: 37° C.
The test system of data set [3] is S. aureus ATCC6538 + S. epidermidis. Briefly: mixed S. aureus/S. epidermidis biofilm assay, crystal violet. It counts as cell-based. As to conditions: 37° C. (Table 3). As for the experimental part:
Overnight cultures of S. aureus ATCC6538 and S. epidermidis were grown in LB medium and were diluted 1/200 in the same vial of TSB to form a mixed culture suspension.

Data set [4] has as its system S. Typhimurium ATCC14028. Briefly: static peg (Calgary Biofilm Device) anti-biofilm assay, crystal violet and OD600.
For data set [5], the system named is S. liquefaciens MG44. The description is as above. It counts as cell-based, Serratia liquefaciens. The following applies: 25° C.
In data set [6] the test system is S. aureus SH1000. The data set is described as above. As to conditions: for IC50: 37° C.
Data set [7] has as its system B. cepacia LMG1222T. The data set is described as above. The following applies: for IC50: 25° C.
The subject of data set [8] is P. gingivalis ATCC33277. Described as above.
Data set [9] has as its system S. aureus ATCC6538. Described as above. The following applies: 37° C.
The test system of data set [10] is C. albicans SC5314. Briefly: inhibition of C. albicans biofilms, cell titer blue (CTB) quantification. It counts as cell-based, Candida albicans. As to conditions: for IC50: biofilm formation, 37° C., read-out: BIC50. As for the experimental part: The potential of the compounds to prevent C. albicans SC5314 biofilm formation was assessed using the cell titer blue (CTB) quantification method (26). For the CTB method, an overnight culture of C. albicans SC5314 was washed with PBS and a cell suspension of 10^6 cells/ml (OD600=0.1) was prepared in RPMI 1640 medium (pH 7.0). […] After 16 h of static incubation at 37° C., biofilms were washed and quantified with CTB as described previously.

Data set [11] has as its system E. coli TG1 + P. aeruginosa PA14. Briefly: mixed E. coli/P. aeruginosa biofilm assay, crystal violet. It counts as cell-based. As to conditions: for IC50: 37° C. (Table 3). As for the experimental part: Overnight cultures of E. coli TG1 and P. aeruginosa PA14, were diluted 1/100 in the same vial of TSB 1/20 to form a mixed culture suspension.
Data set [12] concerns S. epidermidis. Briefly: static peg (Calgary Biofilm Device) anti-biofilm assay, crystal violet and OD600. The following applies: for IC50: 37° C.
The subject of data set [13] is bone-marrow derived mesenchymal stem cells (MSC). Briefly: mammalian-cell viability assay, trypan blue staining. It counts as cell-based. The following applies: 12.5 μM, 6 days exposure. As for the experimental part:
(§1) Cell viability of two human primary cell types, namely, osteoblasts (OB) and bone-marrow derived mesenchymal stem cells (MSC) was tested according to the ISO 10993-5 standard, as previously described. Briefly, cells were seeded in 96-well tissue culture test plates (TPP, Switzerland) at 5×10^3 cells/cm^2 in Advanced DMEM cell culture media supplemented with 10% serum, 1× GlutaMAX, 0.05 mg/mL Gentamycin, and were allowed to attach overnight. The next day, the cells were exposed to (i) cell culture medium and medium with the corresponding control (0.5% ethanol or DMSO) (negative controls), (ii) medium with 0.05% phenol (cytotoxic control), and (iii) medium with compounds (12.5 μM) and incubated for 2 h, 48 h and 6 days (8 repeats for each condition). At each time-point the numbers of viable and dead cells were determined directly by trypan blue staining, and indirectly by measuring the metabolic activity with MTT (3-(4,5-dimethylthiazol-2-yl)-2,5-diphenyltetrazolium bromide) staining.
(§2) The medium was removed from the wells, and 1/3 trypan blue in Dulbecco's modified Eagle's medium (DMEM) was added to the cells, incubated for 3 min, after which trypan blue was removed and DMEM medium was added to the wells. In each of four wells, two microscopy fields were counted for viable (transparent) and dead (blue) cells.

In data set [14] the test system is osteoblasts (OB). Described as above. It counts as cell-based. As to conditions: 12.5 μM, 6 days exposure. The procedure:
as §1, §2

For data set [15], the system named is C. albicans SC5314 + S. epidermidis. Briefly: mixed C. albicans/S. epidermidis biofilm assay, selective plating. As to conditions: for activity at 100 µM: 100 μM (Table 5); for activity at 25 µM: 25 μM (Table 5). It counts as cell-based, Candida albicans; Staphylococcus epidermidis. As for the experimental part: The concentrations 25 μM (0.0625% DMSO or ethanol) and 100 μM (0.25% DMSO or ethanol) were tested. After 24 h of incubation at 37° C., biofilms were washed with PBS and fresh medium with or without compounds was added. After further incubation for 48 h at 37° C., the biofilms were washed with PBS after which the cells were re-suspended in 100 μl of PBS by scraping off, sonication (1 min, 45 kHz, USC300-T; VWR, Radnor, Pa., USA) and vigorously pipetting up-and-down. Finally, the biofilm cells were diluted in PBS and plated on YPD agar plates containing 100 mg/L ampicillin and TSA plates containing 25 mg/L amphotericin B, to determine the number of fungal and bacterial CFUs after 2 days of incubation at 37° C., respectively. The percentage of C. albicans SC5314 and S. epidermidis cells was determined relative to the DMSO or ethanol control treatment.

For data set [16], the system named is bone-marrow derived mesenchymal stem cells (MSC). Briefly: osteogenic differentiation, calcium and DNA assay. It counts as cell-based, human. The following applies: 12.5 μM, calcium content normalized by DNA, versus solvent control. As for the experimental part: (§3) The effect on osteogenic differentiation potential was assessed as previously described. Only the substances that allowed survival of the cells for more than 3 weeks, which is the time needed for mature osteogenic differentiation, were tested. Briefly, osteoblasts and bone-marrow derived mesenchymal stem cells were cultured in a positive solvent control (osteogenic medium with 0.5% DMSO or ethanol background), a negative control (medium without osteogenic supplements) and treated samples (osteogenic medium, 0.5% DMSO or ethanol background and 12.5 μM of test compound) with four repeats per condition. Mesenchymal stem cells and osteoblast cell cultures were harvested after 3 or 5 weeks, respectively, for the calcium and DNA assay.
(§4) Calcium deposition of osteoblasts and mesenchymal stem cells was measured with the Calcium CPC LiquiColor test (Stanbio Laboratory, Boerne, Tex.) as previously described. Briefly, cell cultures were extracted with 5% trichloroacetic acid (500 μl per sample), O-cresolphtalein complex was added, and the calcium content was determined spectrophotometrically at 550 nm. DNA content was determined as previously described. DNA values were used to normalize the calcium content. Four wells per condition were examined, and two samples from each well were taken for each assay.

Data set [17] relates to osteoblasts (OB). Briefly: osteogenic differentiation, calcium and DNA assay. As to conditions: 12.5 μM, calcium content normalized by DNA, versus solvent control. It counts as cell-based, human. As for the experimental part: as §3, §4
Setting [18] is: read-out: BIC50, biofilm formation, 25° C.
The mark [19] stands for this setting: read-out: BIC50, biofilm formation, 37° C.
Where [20] appears, read: read-out: BIC50, biofilm formation.
Where [21] appears, read: mixed biofilm formation, read-out: BIC50.
Setting [22] is: planktonic growth of mixed culture, read-out: IC50.
[23] abbreviates: biofilm formation, read-out: BIC50.
Where [24] appears, read: planktonic growth, read-out: IC50.
[25] abbreviates: C. albicans in mixed biofilm with S. epidermidis, read-out: CFUs % survival C.a.
The mark [26] stands for this setting: S. epidermidis in mixed biofilm with C. albicans, read-out: CFUs % survival Se.
The mark [27] stands for this setting: S. epidermidis in mixed biofilm with C. albicans, read-out: CFUs % survival S.c.

Read-outs that look alike come from different tables or passages of the source.

Take `CCCCNc1ncc(-c2ccc(Br)cc2)[nH]1` [Compound 4]: the IC50 in [1] (planktonic growth, 37° C.) was over 400 µM; in [1] (setting [18]), 9.8 µM; in data set [1] (setting [19]), over 400 µM; in data set [2] (planktonic growth), 23 µM; in [2] (setting [20]), 84.7 µM; in data set [3] (setting [21]), 6.8 µM. Also, the IC50 in data set [3] (setting [22]) was about 118 µM; in data set [4] (setting [18]) it was 7.1 µM; in data set [5] (setting [23]), 4.4 µM; in [5] (setting [24]), 118 µM; in data set [6] (planktonic growth), 89.4 µM; in data set [6] (setting [20]), 66.5 µM. The IC50 was over 400 µM in data set [7] (planktonic growth); 189 µM in data set [7] (setting [20]); 8.2 µM in data set [8] (planktonic growth, 37° C.); 3.7 µM in data set [8] (setting [19]); 60.1 µM in data set [9] (planktonic growth); about 12.3 µM in [9] (setting [20]). Moreover, the IC50 in data set [10] is 66.7 µM; in data set [11] (setting [21]), 17.8 µM; in data set [11] (setting [22]), over 400 µM; in data set [12] (planktonic growth), 54.4 µM; in data set [12] (setting [20]) it was over 400 µM.

As for `Brc1ccc(-c2cnc(NCCn3cc(C4CC4)nn3)[nH]2)cc1` [Compound 6], the “anti-biofilm activity (in words)” value is recorded as “No activity” in data set [1] (monospecies biofilm, 37° C.); “No activity” in data set [6] (monospecies biofilm); “No activity” in data set [7] (monospecies biofilm); “No activity” in [10] (monospecies biofilm, novel compounds: highest concentration tested 100 μM); “No activity” in [12] (monospecies biofilm). Also, the IC50 in data set [1] (planktonic growth, 25° C.) is over 400 µM; in data set [1] (planktonic growth, 37° C.), over 400 µM; in data set [1] (setting [18]), 71.6 µM; in data set [1] (setting [19]) it was over 400 µM; in data set [2] (planktonic growth) it was 183 µM; in data set [2] (setting [20]) it was about 192 µM. In addition, the IC50 in data set [3] (setting [21]) was 33.9 µM; in data set [3] (setting [22]) it was about 392 µM; in data set [4] (planktonic growth, 25° C.), 2.4 µM; in [4] (setting [20]), 2 µM; in data set [5] (setting [23]) it was 63.3 µM; in data set [5] (setting [24]), over 400 µM. Also, the IC50 in data set [6] (planktonic growth) is over 400 µM; in data set [6] (setting [20]), over 400 µM; in data set [7] (planktonic growth), over 400 µM; in data set [7] (setting [20]), over 400 µM; in [8] (planktonic growth, 37° C.) it was 19.5 µM; in data set [8] (setting [20]), 18.1 µM. In addition, the IC50 in [9] (planktonic growth) is over 400 µM; in [9] (setting [20]), 75.2 µM; in [10], over 400 µM; in [11] (setting [21]), 34.6 µM; in [11] (setting [22]) it was over 400 µM; in data set [12] (planktonic growth) it was over 400 µM. In addition, the IC50 in [12] (setting [20]) is over 400 µM.

As for `CCCCCCCCn1c(-c2ccccc2)cnc1NCC(C)C` [Compound 8a, N-isobutyl-1-octyl-5-phenyl-1H-imidazol-2-amine], the “anti-biofilm activity (in words)” value in data set [2] (biofilm at 37° C.) was “showed activity”; in data set [2] (biofilm cells at 25° C.), “potent activity”. In addition, the “proliferation (in words)” value in [13] and in data set [14] was “slightly reduced” throughout. The activity at 100 µM in data set [15] (setting [25]) and in [15] (setting [26]) was 1% throughout. In data set [11], the “inhibition of the mixed biofilm P. aeruginosa/E. coli (in words)” value is on record as “strongly inhibited”.

`CCCCCCCCn1c(-c2ccc(Cl)cc2)cnc1NCC(C)C` [Compound 8b, 5-(4-chlorophenyl)-N-isobutyl-1-octyl-1H-imidazol-2-amine]: the “calcium deposition (in words)” value in data set [16] and in data set [17] was “induced the calcium deposition” each time. The “anti-biofilm activity (in words)” value in data set [2] (biofilm cells at 25° C.) is listed as “potent activity”. In addition, the activity at 25 µM in data set [15] (setting [25]) was 2%; in [15] (setting [27]), 6.1%. In data set [15] (setting [26]), the activity at 100 µM came out at 0.7%.

Take `CCCCCCCCn1c(-c2ccccc2)cnc1NC1CCCC1` [Compound 8e, N-cyclopentyl-1-octyl-5-phenyl-1H-imidazol-2-amine]: the “anti-biofilm activity (in words)” value in [2] (biofilm at 37° C.) was “showed activity”; in data set [2] (biofilm cells at 25° C.), “potent activity”. Further, the “proliferation (in words)” value in data set [13] and in [14] was “slightly reduced” each time. In addition, the activity at 25 µM in [15] (setting [25]) worked out at 10%. The figures for the activity at 100 µM in data set [15] (setting [25]) and in [15] (setting [26]) were 2.5% and 0%, respectively. In data set [11], the “inhibition of the mixed biofilm P. aeruginosa/E. coli (in words)” value was “at higher concentrations”.

On to `CCCCCCCCn1c(-c2ccc(Cl)cc2)cnc1NC1CCCC1` [Compound 8f, 5-(4-chlorophenyl)-N-cyclopentyl-1-octyl-1H-imidazol-2-amine], for which, in [2] (biofilm cells at 25° C.), the “anti-biofilm activity (in words)” value is given as “potent activity”. The “proliferation (in words)” value in data set [13] is “slightly reduced”. The activity at 25 µM is 2.9% in [15] (setting [25]) and 2.5% in data set [15] (setting [27]). For the same compound, the activity at 100 µM in data set [15] (setting [25]) worked out at 7.2%; in [15] (setting [26]), 0.3%. Further, the “inhibition of the mixed biofilm P. aeruginosa/E. coli (in words)” value in [11] was “at higher concentrations”.
